Series [1] concerns the target T1, Human Neutrophil Elastase (HNE) (Homo sapiens, UniProt P08246).
T1 construct: Human Neutrophil Elastase (HNE) purified from serum; purchased Calbiochem 324681; host or cells: purified from serum (natural human source, not recombinant)
T1 sequence (P08246 30-247 limits assumed): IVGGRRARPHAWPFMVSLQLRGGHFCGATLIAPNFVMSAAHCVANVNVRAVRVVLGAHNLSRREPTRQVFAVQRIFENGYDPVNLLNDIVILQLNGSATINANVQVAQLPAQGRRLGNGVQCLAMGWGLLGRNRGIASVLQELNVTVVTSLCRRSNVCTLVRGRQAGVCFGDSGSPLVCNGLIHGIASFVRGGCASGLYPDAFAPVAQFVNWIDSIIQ
As to the kind of experiment: Human Neutrophil Elastase Quenched-FRET Assay. Particulars: 1.7 nM HNE, 100 μM MeOSuc-AAPV-AMC, 15 min pre-incubation, 30 min at room temperature; read-out: Inhibition of Human Neutrophil Elastase IC50. The class given is biochemical. Here is the method:
Human Neutrophil Elastase Quenched-FRET Assay
The assay uses Human Neutrophil Elastase (HNE) purified from serum (Calbiochem art. 324681; Ref. Baugh, R. J. et al., 1976, Biochemistry. 15, 836-841). HNE was stored in 50 mM sodium acetate (NaOAc), 200 mM sodium chloride (NaCl), pH 5.5 with added 30% glycerol at −20° C. The protease substrate used was Elastase Substrate V Fluorogenic, MeOSuc-AAPV-AMC (Calbiochem art. 324740; Ref. Castillo, M. J. et al., 1979, Anal. Biochem. 99, 53-64). The substrate was stored in dimethyl sulphoxide (DMSO) at −20° C. The assay additions were as follows: Test compounds and controls were added to black 96-well flat-bottom plates (Greiner 655076), 1 μL in 100% DMSO, followed by 30 μL HNE in assay buffer with 0.01% Triton (trade mark) X-100 detergent. The assay buffer constitution was: 100 mM Tris(hydroxymethyl)aminomethane (TRIS) (pH 7.5) and 500 mM NaCl. The enzyme and the compounds were incubated at room temperature for 15 minutes. Then 30 μl substrate in assay buffer was added. The assay was incubated for 30 minutes at room temperature. The concentrations of HNE enzyme and substrate during the incubation were 1.7 nM and 100 μM, respectively. The assay was then stopped by adding […] stop solution (140 mM acetic acid, 200 mM sodium monochloroacetate, 60 mM sodium acetate, pH 4.3). Fluorescence was measured on a Wallac 1420 Victor 2 instrument at settings: Excitation 380 nm, Emission 460 nm. IC50 values were determined using Xlfit curve fitting using model 205.

Series [2] can be described thus: Humidity interaction (Gravimetrical Vapour Sorption). The class given is physicochemical. Particulars: 0 to 80% relative humidity (RH) at 25° C. Here is the method: is The gravimetric responses of test samples to changes in humidity were investigated using a TGA 5000 (TA Instruments) Gravimetrical Vapour Sorption (GVS). The relative humidity (RH) was raised in steps of 5% to 90% RH and lowered back to 0% RH in two cycles. Each level of RH was held until the equilibrium condition (sample weight change<0.01 wt % per 10 minutes) was reached. Measurements were normally made at 25° C. Approximately 5 mg of the test sample was placed in the cup and evaluated. The hygroscopicity was calculated as the relative change in weight of the sample between the two conditions 0% RH and 80% RH during the second cycle.

Series [3] is described as follows: Thermal behaviour of the solid (DSC / TGA). The class given is physicochemical. To be noted: solid state. The procedure: Using standard methods, for example those described in Höhne, G. W. H. et al (1996), Differential Scanning Calorimetry, Springer, Berlin, the calorimetric response of a test sample to increasing temperature was investigated using a TA Instruments Q2000 Modulated Temperature Differential Scanning Calorimeter (MTDSC). Measurements were performed between 15 and 300° C. using a modulation of ±0.50° C. in intervals of 40 seconds and a ramp rate of 5° C. per minute. Approximately 1 to 5 mg of test sample was placed in aluminium cups with lids (no crimping) under a nitrogen atmosphere.
Gravimetric Analysis (TGA)
The gravimetric response of test samples to increasing temperatures was investigated using a Q500 Thermal Gravimetric Analyser (TGA) (TA Instruments). The samples were heated in a flow of nitrogen gas with a heating rate of 10° C./min.
Approximately 1 to 3 mg of the test sample was placed in the cup and heated to approximately 300° C.

As usually defined, the IC50 is the concentration at which inhibition is half-maximal. For `Cc1c(-c2ccnn2-c2ccc(C#N)cc2)nc(C(N)=O)c(=O)n1-c1cccc(C(F)(F)F)c1` [Example 1 or 1a, 6-[1-(4-Cyanophenyl)-1H-pyrazol-5-yl]-5-methyl-3-oxo-4-[3-(trifluoromethyl)phenyl]-3,4-dihydropyrazine-2-carboxamide], the IC50 in series [1] was 2.2 nM.

On to `Cc1c(-c2ccnn2-c2ccc(C#N)cc2)nc(C(N)=O)c(=O)n1-c1cccc(C(F)(F)F)c1` [Example 1a, 6-[1-(4-Cyanophenyl)-1H-pyrazol-5-yl]-5-methyl-3-oxo-4-[3-(trifluoromethyl)phenyl]-3,4-dihydropyrazine-2-carboxamide Form A], for which the “water uptake (hygroscopicity)” value in series [2] is listed as less than 0.2 wt %. Further, the “thermally stable below (no solvent loss nor other thermal event prior to melting)” value in series [3] is “below 260 °C”.

As for `Cc1c(-c2ccnn2-c2ccc(Cl)cc2)nc(C(N)=O)c(=O)n1-c1cccc(C(F)(F)F)c1` [Example 2, 6-[1-(4-Chlorophenyl)-1H-pyrazol-5-yl]-5-methyl-3-oxo-4-[3-(trifluoromethyl)phenyl]-3,4-dihydropyrazine-2-carboxamide], the IC50 in series [1] is 11 nM.

As for `Cc1c(-c2ccnn2-c2ccc(Cl)cn2)nc(C(N)=O)c(=O)n1-c1cccc(C(F)(F)F)c1` [Example 3, 6-[1-(5-Chloropyridin-2-yl)-1H-pyrazol-5-yl]-5-methyl-3-oxo-4-[3-(trifluoromethyl)phenyl]-3,4-dihydropyrazine-2-carboxamide], the half-maximal inhibitory concentration (IC50) in series [1] worked out at 28 nM.

On to `Cc1cc(-c2nc(C(N)=O)c(=O)n(-c3cccc(C(F)(F)F)c3)c2C)n(-c2ccc(C#N)cc2)n1` [Example 4, 6-[1-(4-Cyanophenyl)-3-methyl-1H-pyrazol-5-yl]-5-methyl-3-oxo-4-[3-(trifluoromethyl)phenyl]-3,4-dihydropyrazine-2-carboxamide], for which the IC50 in series [1] was 3.5 nM.

Consider `Cc1c(-c2ccnn2-c2ccc(C#N)cc2)nc(C(=O)NC2CC2)c(=O)n1-c1cccc(C#N)c1` [Example 5, 4-(3-Cyanophenyl)-6-[1-(4-cyanophenyl)-1H-pyrazol-5-yl]-N-cyclopropyl-5-methyl-3-oxo-3,4-dihydropyrazine-2-carboxamide], for which the IC50 in series [1] was 4.2 nM.

For `Cc1c(C2=NC(C)(C)CN2c2ccc(C#N)cc2)nc(C(N)=O)c(=O)n1-c1cccc(C(F)(F)F)c1` [Example 6, 6-(1-(4-Cyanophenyl)-4,4-dimethyl-4,5-dihydro-1H-imidazol-2-yl)-5-methyl-3-oxo-4-(3-(trifluoromethyl)phenyl)-3,4-dihydropyrazine-2-carb oxamide], the IC50 in series [1] turned out to be 1.4 nM.

The values are drawn from patent US8466284B2, “Some 2-pyrazinone derivatives and their use as inhibitors of neutrophile elastase” (Astra Zeneca AB, priority 2007, dated 2013).
